Some test systems named below: M14 melanoma; NCI-H522 lung; MDA-MB-435; LOX IMVI melanoma; OVCAR-8 ovarian; IGROV1 ovarian; MOLT-4 leukemia; NCI-H460 lung; HT29 colon; 786-0 renal.
Assay in all cases: NCI anticancer screen, dose series, 48 h

Several values for one entry are separate records, joined by “and”; a condition that tells them apart may be missing. Equal values may be shown once.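 Method: 48-hour compound exposure of cells in 96-well plates, five concentrations, linear interpolation of endpoints. Here, GI50 denotes the concentration required for 50% inhibition of growth. The concentration for full growth arrest is given as TGI.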

Consider `COC(=O)C1(F)C(=O)NC(=O)NC1O` (stereo not given), for which the TGI in the test with M14 melanoma, in the test on NCI-H522 lung, with MDA-MB-435, with LOX IMVI melanoma, in the test with OVCAR-8 ovarian and in the test with IGROV1 ovarian was over 100 µM each time. The TGI in the test on MOLT-4 leukemia, in the test on NCI-H460 lung, with HT29 colon and in the test on 786-0 renal was over 100 µM throughout.
`Cc1cc(Cc2cc(C)cc(C(C)(C)C)c2O)c(O)c(C(C)(C)C)c1`: the GI50 is 11.1 µM in the test with M14 melanoma; 4.16 µM in the test on NCI-H522 lung; 7.82 µM in the test with MDA-MB-435; 7.55 µM with LOX IMVI melanoma; 5.17 µM with OVCAR-8 ovarian; 5.24 µM in the test with IGROV1 ovarian. Besides, the GI50 with MOLT-4 leukemia was 6.27 µM; in the test with NCI-H460 lung, 3.64 µM; with HT29 colon it was 4.58 µM; in the test with 786-0 renal, 11 µM. For the same compound, the TGI with M14 melanoma came to 23 µM; with NCI-H522 lung, 14.6 µM; with MDA-MB-435, 22.2 µM; with LOX IMVI melanoma it was 20.2 µM; in the test with OVCAR-8 ovarian, 16.4 µM; in the test on IGROV1 ovarian, 16.5 µM. Moreover, the TGI is over 100 µM with MOLT-4 leukemia, 12 µM with NCI-H460 lung, 15.6 µM in the test on HT29 colon and 23 µM in the test on 786-0 renal.
For `O=c1[nH]cnc2[nH]ncc12`, the GI50 was 234 µM in the test with M14 melanoma; > 84.4 µM and 272 µM in the test on NCI-H522 lung; 380 µM with MDA-MB-435; 142 µM in the test on LOX IMVI melanoma; 214 µM with OVCAR-8 ovarian; 54.6 µM and 422 µM in the test on IGROV1 ovarian. The GI50 was 972 µM with MOLT-4 leukemia, 1510 µM in the test on NCI-H460 lung, 842 µM with HT29 colon and 400 µM in the test with 786-0 renal. Moreover, the TGI in the test on M14 melanoma, in the test with NCI-H522 lung, in the test on MDA-MB-435, with LOX IMVI melanoma, in the test with OVCAR-8 ovarian and in the test on IGROV1 ovarian was over 5000 µM throughout. In addition, the TGI in the test with MOLT-4 leukemia, in the test with NCI-H460 lung, in the test on HT29 colon and in the test with 786-0 renal was over 5000 µM throughout.
For the compound `CO[C@@H]1/C=C(C)/C=C/[C@@H](C)/C=C(\C)C(=O)OC(/C(C)=C/C=C(\C)CNC(=O)[C@H](CO)NC=O)[C@@H](C)/C=C/C=C/[C@H](OC)CC/C=C(C)/C=C/C1` (stereo not given in full), the GI50 with M14 melanoma is under 0.005 µM; in the test with NCI-H522 lung it was under 0.005 µM; with MDA-MB-435 it was under 0.005 µM; with LOX IMVI melanoma it was under 0.005 µM; with OVCAR-8 ovarian, 0.0105 µM; in the test with IGROV1 ovarian, under 0.005 µM. Also, the GI50 in the test on MOLT-4 leukemia, in the test on NCI-H460 lung, in the test on HT29 colon and with 786-0 renal was under 0.005 µM in each case. Besides, the TGI in the test with M14 melanoma is under 0.005 µM; in the test on NCI-H522 lung, 18.7 µM; with MDA-MB-435, under 0.005 µM; in the test with LOX IMVI melanoma it was under 0.005 µM; with OVCAR-8 ovarian it was 3.18 µM; in the test on IGROV1 ovarian it was 9.15 µM. For the same compound, the TGI in the test with MOLT-4 leukemia was over 42.2 µM; in the test on NCI-H460 lung it was 5.81 µM; with HT29 colon, over 50 µM; in the test on 786-0 renal, 0.322 µM.
In the case of `COc1cc2c[n+](C)c3c4ccccc4ccc3c2cc1OC` (tested in a mixture with another compound), the GI50 in the test with M14 melanoma was 8.31 µM; in the test with NCI-H522 lung it was 0.785 µM; with MDA-MB-435 it was 8.92 µM; with LOX IMVI melanoma, 4.02 µM; in the test on OVCAR-8 ovarian it was 3.57 µM; in the test with IGROV1 ovarian, 2.75 µM. The GI50 is 0.514 µM in the test with MOLT-4 leukemia, 2.96 µM with NCI-H460 lung, 3.94 µM in the test on HT29 colon and 4.53 µM in the test with 786-0 renal. The TGI was 51.9 µM in the test on M14 melanoma; 4.37 µM and 11.6 µM with NCI-H522 lung; 21.5 µM in the test with MDA-MB-435; 30.9 µM in the test with LOX IMVI melanoma; 31.7 µM in the test on OVCAR-8 ovarian; 44.1 µM in the test on IGROV1 ovarian. Moreover, the TGI came to 50.5 µM in the test on MOLT-4 leukemia, 31.7 µM in the test with NCI-H460 lung, 32.4 µM in the test with HT29 colon and 39.5 µM with 786-0 renal.
`c1ccc(-n2nnnc2-c2cccc3ccccc23)cc1`: the GI50 with M14 melanoma is 0.365 µM; in the test with NCI-H522 lung, 0.272 µM; with MDA-MB-435, 0.121 µM; in the test with LOX IMVI melanoma, 0.498 µM; with OVCAR-8 ovarian it was 1.48 µM; in the test on IGROV1 ovarian, 1.56 µM. Besides, the GI50 in the test with MOLT-4 leukemia was 0.657 µM; in the test on NCI-H460 lung it was 0.442 µM; in the test on HT29 colon, 0.357 µM; in the test with 786-0 renal, 2.01 µM. Besides, the TGI with M14 melanoma was 8.81 µM; in the test on NCI-H522 lung, 2.71 µM; in the test with MDA-MB-435, 0.489 µM; in the test with LOX IMVI melanoma it was 24.8 µM; with OVCAR-8 ovarian it was over 100 µM; in the test with IGROV1 ovarian, over 100 µM. In addition, the TGI in the test on MOLT-4 leukemia is over 100 µM; in the test on NCI-H460 lung it was over 42.4 µM; in the test on HT29 colon, over 20.3 µM; in the test with 786-0 renal, 53.2 µM.
For `O=C(O)c1cc(N=Cc2ccccc2O)cc(C(=O)O)c1`, the TGI in the test on M14 melanoma, with NCI-H522 lung, in the test on MDA-MB-435, in the test with LOX IMVI melanoma, in the test on OVCAR-8 ovarian and with IGROV1 ovarian was over 100 µM in each case. The TGI with MOLT-4 leukemia, in the test on NCI-H460 lung, with HT29 colon and in the test on 786-0 renal was over 100 µM each time.
On to `COc1cccc(/C=C/c2cnc3ccccc3n2)c1OC`, for which the TGI in the test with M14 melanoma was over 100 µM; in the test on NCI-H522 lung it was 53.5 µM; with MDA-MB-435 it was over 100 µM; in the test on LOX IMVI melanoma, over 100 µM; in the test on OVCAR-8 ovarian, over 100 µM; in the test with IGROV1 ovarian, over 100 µM. The TGI in the test with MOLT-4 leukemia is 68.1 µM; in the test with NCI-H460 lung, over 100 µM; in the test with HT29 colon, 98.1 µM; with 786-0 renal, over 100 µM.

For the origin of these results see PubChem BioAssay (NCI).
